PMC4033217, “Characterization of Novel PI3Kδ Inhibitors as Potential Therapeutics for SLE and Lupus Nephritis in Pre-Clinical Studies” (Frontiers in Immunology, 2014)
“Also recorded” adds a separate entry of the source. Like-named read-outs stand apart in the source and are kept apart here.

Assays:
Hck = Hck (Homo sapiens, UniProt P08631); assay: Hck kinase inhibition; type: biochemical
CD19+ B cells [1] = assay: B cell proliferation assay (anti-IgM + IL-4, [3H]thymidine); type: cell-based, human; conditions: for IC50: anti-IgM and IL-4, 4 days
Experimental: CD19^+ B cells were isolated from PBMC of healthy volunteers by negative selection using the B cell purification kit II (Miltenyi Biotech, Bergisch Gladbach, Germany) and following manufacturer’s instructions. […] Proliferation was assessed by a multiplate beta counter (Perkin Elmer, Shelton, CT, USA).

Caco-2 permeability = type: in vitro ADME; conditions: human
From the text: (§1) 36 CLint: intrinsic clearance in liver microsomes. h/m: human/mouse. Papp: apparent permeability. uPPB:
(§2) 37 unbound plasma protein binding. […]

[2] = test system: pAkt in CD19+ B cells, human whole blood; assay: Anti-IgM-induced pAkt in human whole blood; type: cell-based; conditions: B-cell, 5 min, healthy donors
Experimental: Human whole blood was incubated with PI3Kδ inhibitors for 30 min and stimulated with 30 μg/ml anti-IgM (Jackson Immuno Research, West Grove, PA, USA) for 5 min at 37°C. […] Cell were stained with rabbit anti-pAkt (Ser473) followed by the Alexa647-conjugated F(ab′)2 goat anti-rabbit IgG (Invitrogen, Carlsbad, CA, USA), and anti-CD19-PE (BD Biosciences Pharmingen, San Diego, CA, USA). CD19^+ cells were gated for pAkt analysis.

CD19+ B cells [3] = assay: B cell cytokine release assay (anti-Ig, CpG ODN 2006, IFNα); type: cell-based; conditions: Homo sapiens, 48 h
Experimental: Cytokines in the supernatants were measured with Cytometric Bead Array kits (BD Biosciences Pharmingen, San Diego, CA, USA).

[4] = Unbound plasma protein binding, human; type: in vitro ADME; conditions: unbound fraction
From the text: as §1, §2

pAkt in Ramos B cells = assay: BCR-crosslinking (anti-IgM)-induced Akt phosphorylation in Ramos cells; type: cell-based; conditions: Homo sapiens, 0.25 h, anti-IgM 15 min
B cell/PBMC co-culture = assay: BioMAP B–T system (B cell/PBMC co-culture, anti-IgM and mild TCR stimulation); type: cell-based, human; conditions: 84 h
Experimental: Positively selected primary normal human CD19^+ B cells and CD4^+ T-cells were obtained from AllCells (Emeryville, CA, USA). PBMC were isolated from buffy coats (Stanford Blood Center, Stanford, CA, USA).
The levels of readout parameters were measured by ELISA ([14], [15]). Measurement values for each biomarker readout in a compound-treated sample were divided by the mean value from eight DMSO control samples (from the same plate) to generate a ratio. All ratios were then log10 transformed and plotted (BioMAP profile). Overt cytotoxicity of test compounds was assessed by total cell protein staining sulforhodamine B (Sigma-Aldrich, St. Louis, MO, USA) for adherent cells, or by cell viability staining Alamar Blue (Invitrogen, Carlsbad, CA, USA) for non-adherent cells.
This system models both T-cell-dependent B cell activation and class-switching as would occur in a germinal center, and B-cell-dependent T-cell responses, such as cytokine release ([13]).

[5] = Intrinsic clearance in mouse liver microsomes; type: in vitro ADME; conditions: read-out: In vitro Clint
From the text: as §1, §2

[6] = test system: 12 BioMAP human primary cell co-culture systems; assay: BioMAP profiling in 12 human primary cell co-culture systems; conditions: any concentration (from 10 to 33.3 μM as printed), any culture system
Experimental: Overt cytotoxicity of test compounds was assessed by total cell protein staining sulforhodamine B (Sigma-Aldrich, St. Louis, MO, USA) for adherent cells, or by cell viability staining Alamar Blue (Invitrogen, Carlsbad, CA, USA) for non-adherent cells.
Overtly adverse effects of
Proliferation of PBMC (T cells) was
140 quantiﬁ ed by Alamar blue reduction and proliferation of adherent cell types was quantiﬁ ed by SRB
PBMC viability was assessed by adding Alamar blue (Invitrogen, Camarillo, CA) to PBMC
SRB was performed by removing supernatants from plates, washing plates with
Plates are washed ag ain with PBS then,
Overtly cytotoxic compounds are

[7] = test system: panel of 278 additional kinases; assay: Kinase selectivity profile at 10 µM; type: biochemical; conditions: significant inhibition = >50%, ATP at Km
[8] = Intrinsic clearance in human liver microsomes; type: in vitro ADME; conditions: read-out: In vitro Clint
From the text: as §1, §2

CD123+/CD303+ pDC cells = assay: Plasmacytoid dendritic cell IFN-α release assay (CpG ODN 2395); type: cell-based, human
Experimental: Plasmacytoid dendritic cells were isolated from PBMC of healthy volunteers by negative selection using pDC purification kit (Miltenyi Biotech, Bergisch Gladbach, Germany). […] IFN-α in the supernatants was measured from the culture supernatants with Verikine ELISA kit (PBL Assay Science, Piscataway, NJ, USA).

NZB/W F1 mice = assay: IFNα-accelerated NZB/W F1 mouse SLE model; type: in vivo
Experimental: All protocols and procedures were conducted according to German animal protection law (Tierschutzgesetz) and were approved by the local veterinarian authorities (Regierungspräsidium, Darmstadt, Germany). Ten-week-old female NZB/W F1 mice (Jackson Laboratories, Bar Harbor, ME, USA) were given a single i.v. injection of 1 × 10^8 IU/100 μl of AdV-IFN-α (adenovirus with mmIfna5_v1 insert, Biofocus, CoA.NL.09.160) in saline or left untreated (sham). Drug treatments were either initiated at 2 weeks (early intervention regimen) or 4 weeks (late intervention regimen) post AdV-IFN-α delivery until the end of the experiment (at 10 weeks). […] Serum and urine samples were collected for anti-dsDNA antibodies (by ELISA) and urinary protein creatinine ratio (UPCR) (measured by ADVIA 1800) determination, respectively, on the days indicated. Proteinuria is defined as UPCR >3.

PI3K δ [9] = assay: Scintillation proximity assay, PI3Kδ enzymatic activity; type: biochemical, human
PI3K δ [10] = molecular target: PI3K δ (Homo sapiens, UniProt O00329); assay: as above; type: biochemical; conditions: PI3K δ; 65 μM ATP; read-out: Enzymatic potency IC50
PAK3 = PAK3 (Homo sapiens, UniProt O75914); assay: PAK3 kinase inhibition; type: biochemical
[11] = test system: pAkt in B220+ B cells, mouse whole blood; assay: Anti-IgD-induced pAkt in mouse whole blood (in vitro); type: cell-based; conditions: for IC50: B-cell, mouse whole blood in vitro, anti-IgD
Experimental: Whole blood withdrawn from C57BL/6N mice (Charles River Laboratories, L’Arbresle, France) was incubated with PI3Kδ inhibitors for 30 min and stimulated with goat anti-mouse IgD antiserum (eBioscience, San Diego, CA, USA) for 7 min at 37°C. […] Cells were stained with rabbit anti-pAkt (Ser473) for 1 h followed by anti-IgD-FITC, anti-B220-PerCP-Cy5.5 (all BD Biosciences Pharmingen, San Diego, CA, USA), and donkey anti-rabbit IgG-Alexa647 (Invitrogen, Carlsbad, CA, USA) for 30 min at room temperature. B220^+IgD^+ cells were gated for pAkt analysis.

pAkt and CD69 in B cells = assay: Ex vivo mouse whole blood assays (pAkt, CD69) after oral dosing; type: in vivo; conditions: for ED50: Mus musculus, B-cell, naïve C57BL/6N mice, read-out: ED50 inhibition of pAkt and CD69
Experimental: PI3Kδ inhibitors were administered to naïve C57BL/6N mice (Charles River Laboratories, L’Arbresle, France), by gavage at indicated time points before heparinized whole blood was obtained and divided into two aliquots. One aliquot was incubated with anti-IgD as stimulation and another PBS as basal control. pAkt in B cells or CD69 up-regulation on B cell surface of each sample was measured as described for the in vitro assays. The difference between stimulated and basal levels of mean fluorescence intensity (MFI) was calculated as Δ value.

Hck, sequence (P08631 whole entry, species assumed): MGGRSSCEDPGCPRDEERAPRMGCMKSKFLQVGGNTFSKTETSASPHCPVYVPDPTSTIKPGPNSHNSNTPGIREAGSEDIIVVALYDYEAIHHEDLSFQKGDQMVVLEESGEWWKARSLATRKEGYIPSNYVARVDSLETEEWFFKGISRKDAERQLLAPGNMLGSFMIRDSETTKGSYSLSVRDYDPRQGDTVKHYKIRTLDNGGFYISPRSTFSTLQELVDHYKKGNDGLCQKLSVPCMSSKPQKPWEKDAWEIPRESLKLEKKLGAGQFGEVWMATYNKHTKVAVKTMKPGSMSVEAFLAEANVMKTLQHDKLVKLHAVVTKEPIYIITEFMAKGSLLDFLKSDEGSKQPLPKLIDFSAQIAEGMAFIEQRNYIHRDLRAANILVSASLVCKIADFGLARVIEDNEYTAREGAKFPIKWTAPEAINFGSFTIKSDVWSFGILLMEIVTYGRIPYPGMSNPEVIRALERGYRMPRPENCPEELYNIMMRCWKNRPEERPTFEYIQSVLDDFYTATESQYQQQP
PAK3, sequence (O75914 whole entry, species assumed): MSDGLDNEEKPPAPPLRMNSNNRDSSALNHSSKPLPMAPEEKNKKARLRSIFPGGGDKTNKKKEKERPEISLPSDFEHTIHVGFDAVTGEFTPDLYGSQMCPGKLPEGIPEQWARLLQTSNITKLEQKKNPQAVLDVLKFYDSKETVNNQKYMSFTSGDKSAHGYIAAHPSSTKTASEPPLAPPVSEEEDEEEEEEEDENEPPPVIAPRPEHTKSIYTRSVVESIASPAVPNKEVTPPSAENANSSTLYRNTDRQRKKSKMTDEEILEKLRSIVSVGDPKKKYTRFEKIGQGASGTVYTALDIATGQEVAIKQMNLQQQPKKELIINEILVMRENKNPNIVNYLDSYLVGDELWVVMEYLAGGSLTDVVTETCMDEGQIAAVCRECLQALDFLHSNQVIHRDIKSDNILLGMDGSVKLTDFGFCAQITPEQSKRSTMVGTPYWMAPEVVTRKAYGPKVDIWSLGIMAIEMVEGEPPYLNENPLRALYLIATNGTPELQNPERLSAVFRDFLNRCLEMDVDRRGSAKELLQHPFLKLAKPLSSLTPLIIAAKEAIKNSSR
PI3K δ (Homo sapiens, UniProt O00329), sequence (O00329 whole entry): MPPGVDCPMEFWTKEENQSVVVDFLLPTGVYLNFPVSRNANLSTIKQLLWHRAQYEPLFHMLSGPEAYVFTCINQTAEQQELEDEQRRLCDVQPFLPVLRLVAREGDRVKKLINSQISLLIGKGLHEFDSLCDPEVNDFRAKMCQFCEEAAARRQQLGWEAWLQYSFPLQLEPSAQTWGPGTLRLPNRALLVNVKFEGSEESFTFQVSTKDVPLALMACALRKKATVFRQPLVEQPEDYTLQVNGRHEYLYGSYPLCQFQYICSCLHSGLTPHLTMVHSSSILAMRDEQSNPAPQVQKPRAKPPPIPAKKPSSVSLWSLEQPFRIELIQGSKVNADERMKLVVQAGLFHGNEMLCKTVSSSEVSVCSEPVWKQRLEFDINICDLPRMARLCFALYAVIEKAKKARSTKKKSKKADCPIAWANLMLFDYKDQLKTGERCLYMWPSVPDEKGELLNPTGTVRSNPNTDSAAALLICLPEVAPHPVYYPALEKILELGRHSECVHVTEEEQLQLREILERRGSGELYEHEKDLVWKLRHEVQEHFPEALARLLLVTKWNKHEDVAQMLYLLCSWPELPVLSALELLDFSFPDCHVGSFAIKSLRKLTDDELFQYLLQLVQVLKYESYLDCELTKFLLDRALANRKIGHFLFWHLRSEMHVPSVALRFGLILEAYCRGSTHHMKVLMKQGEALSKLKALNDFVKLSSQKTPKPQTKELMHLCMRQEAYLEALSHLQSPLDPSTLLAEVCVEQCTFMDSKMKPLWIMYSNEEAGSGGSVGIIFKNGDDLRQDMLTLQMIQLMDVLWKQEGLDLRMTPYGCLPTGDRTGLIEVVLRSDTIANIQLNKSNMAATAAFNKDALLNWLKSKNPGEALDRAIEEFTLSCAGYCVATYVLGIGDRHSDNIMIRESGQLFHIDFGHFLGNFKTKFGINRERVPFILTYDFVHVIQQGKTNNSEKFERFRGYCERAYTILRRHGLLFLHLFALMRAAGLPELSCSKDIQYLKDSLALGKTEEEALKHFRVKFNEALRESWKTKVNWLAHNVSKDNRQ

IC50 (Hck): > 10000 nM
Papp (Caco-2 permeability): 2.4 ×10⁻⁶ cm/s
efflux ratio (Caco-2 permeability): 1.6
IC50 (CD19+ B cells [3]; read-out: IC50 IL-6): 9 nM
IC50 (CD19+ B cells [3]; read-out: IC50 IL-10): 10 nM
IC50 (CD19+ B cells [3]; read-out: IC50 TNF-α): 18 nM
uPPB % [4]: 100%
IC50 (pAkt in Ramos B cells): 57 nM
microsomal CLint [5]: 35 µL/min/mg
Inhibition of kinases in the panel [7]: impaired Hck and PAK3 activity
microsomal CLint [8]: 21 µL/min/mg
IC50 (CD123+/CD303+ pDC cells; Homo sapiens, Plasmacytoid dendritic cell, pDC, CpG ODN 2395 Type C, 18 h): 105 nM
IC50 (PI3K δ [10]): 15 nM
IC50 (PAK3): > 10000 nM
IC50 ([11]; average, read-out: average IC50 for pAkt): 35 nM
IC50 ([11]; representative experiment of Figure 5A, read-out: IC50 pAkt): 59 nM
SMILES: O=C(c1nn([C@@H]2CCCN(CCN3CCOCC3)C2)c2c1CS(=O)(=O)c1cc(F)ccc1-2)N1CCOCC1 [MSC2364588, (R)-7-fluoro-3-(morpholin-4-ylcarbonyl)-1-[1-(2-morpholin-4-ylethyl)piperidin-3-yl]-1,4-dihydrothiochro-meno[4,3-c]pyrazole 5,5-dioxide]
Potency relative to MSC2360844 (CD19+ B cells [1]; B cell function): 10 times
IC50 (CD19+ B cells [1]; Homo sapiens, B-cell, 96 h): 7 nM
IC50 (CD19+ B cells [1]): 6 nM
IC50 [2]: 32 nM
B cell proliferation and IgG secretion, IL-17A, IL-2 and TNFα release (B cell/PBMC co-culture): significantly and dose-dependently inhibited
IL-6 levels (B cell/PBMC co-culture): no effect
Cytotoxicity [6]: No signs of cytotoxicity
Suppression of IFNα production by pDCs (CD123+/CD303+ pDC cells; CpG oligodeoxynucleotide-induced, TLR9-mediated): suppressed
Proteinuria progression / disease severity (NZB/W F1 mice; half daily dose given twice daily, early intervention): reduces disease severity; also recorded: Equivalent results
Drug-related body weight loss (NZB/W F1 mice; throughout the studies, data not shown): no drug-related body weight loss
Potency relative to MSC2360844 (PI3K δ [9]; all assays, cell types and in vitro enzymatic activity): 5–10 times
Potency relative to MSC2360844 (PI3K δ [9]; enzymatic and cellular contexts): 10 fold
Potency relative to MSC2360844 ([11]; mouse whole blood in vitro assay): approximately 10 folds
Effect on pAkt and CD69 (pAkt and CD69 in B cells; 6 h post administration): almost no effect
ED50 (pAkt and CD69 in B cells; 1 h time point): 3 mg/kg
ED50 (pAkt and CD69 in B cells; 2 h): ~10 mg/kg
